# According to patent US20230183193A1, “4-DIFLUOROMETHYL BENZOYL AMIDES WITH HERBICIDAL ACTION” (BAYER CROPSCIENCE AKTIENGESELLSCHAFT, priority 2017, published 2023):
# Tests used:
# Format in all cases: in vivo
# Alopecurus myosuroides [1] = assay: Post-emergence herbicidal action, ALOMY; conditions: 80 g/ha, Table C
# Experimental: (§1) Seeds of monocotyledonous and dicotyledonous weed and crop plants are laid out in sandy loam soil in wood-fiber pots, covered with soil and cultivated in a greenhouse under good growth conditions. 2 to 3 weeks after sowing, the test plants are treated at the one-leaf stage. The compounds of the invention, formulated in the form of wettable powders (WP) or as emulsion concentrates (EC), are then sprayed onto the green parts of the plants in the form of an aqueous suspension or emulsion at a water application rate equating to […], with addition of 0.2% wetting agent. After the test plants have been left to stand in the greenhouse under optimal growth conditions for about 3 weeks, the action of the preparations is assessed visually in comparison to untreated controls (herbicidal action in percent (%): 100% activity=the plants have died, 0% activity=like control plants). […] At the same time, inventive compounds leave Gramineae crops such as barley, wheat, rye, millet/sorghum, corn or rice virtually undamaged when applied post-emergence, even at high active compound dosages. In addition, some substances are also harmless to dicotyledonous crops such as soya, cotton, oilseed rape, sugar beet or potatoes. Some of the compounds according to the invention have high selectivity and are therefore suitable for controlling unwanted vegetation in agricultural crops by the post-emergence method. The data of Tables C and D below illustrate, in an exemplary manner, the […] herbicidal action of the compounds according to the invention, the herbicidal activity being stated in percent.
# (§2) For comparison, the herbicidal activity of numerous compounds according to the invention was tested with the structurally closest compounds known from the documents WO 2011/035874, WO 2012/028579 and WO 2012/126932, by the pre- and post-emergence method.
# Amaranthus retroflexus [2] = assay: Post-emergence herbicidal action, AMARE; conditions: 80 g/ha, Table D
# In short: (§3)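 Herbicidal effect is rated visually as percent versus untreated plants (100% = dead, 0% = like control) about 3 weeks after spraying. Plants were sown in sandy loam in the greenhouse and sprayed on green parts at the one-leaf stage, 2 to 3 weeks post-sowing.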
# Viola tricolor [3] = assay: Pre-emergence herbicidal action, VIOTR; conditions: dosage 320 g/ha, scored visually after 3 weeks vs untreated controls
# In short: (§4)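 Weed seeds were laid out in sandy loam and covered with soil, then the soil surface was treated with an aqueous suspension or emulsion of the formulated compound containing 0.2% wetting agent. Pots stayed in the greenhouse for 3 weeks before damage was rated visually against untreated plants.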
# Setaria viridis [4] = assay: Pre-emergence herbicidal action, SETVI; conditions: dosage 320 g/ha, scored visually after 3 weeks vs untreated controls
# In short: as §4
# Stellaria media [5] = assay: Post-emergence herbicidal action, STEME; conditions: 80 g/ha, Table D
# In short: as §3
# Avena fatua [6] = assay: Pre-emergence herbicidal action, AVEFA; conditions: dosage 320 g/ha, scored visually after 3 weeks vs untreated controls
# In short: as §4
# Avena fatua [7] = assay: Post-emergence herbicidal action, AVEFA; conditions: 80 g/ha, Table C
# Experimental: as §1, §2
# Abutilon theophrasti [8] = assay: Post-emergence herbicidal action, ABUTH; conditions: 80 g/ha, Table D
# In short: as §3
# Alopecurus myosuroides [9] = assay: Pre-emergence herbicidal action, ALOMY; conditions: dosage 320 g/ha, scored visually after 3 weeks vs untreated controls
# In short: as §4
# Matricaria inodora = assay: Pre-emergence herbicidal action, MATIN; conditions: dosage 320 g/ha, scored visually after 3 weeks vs untreated controls
# In short: as §4
# ECHCG = assay: Post-emergence herbicidal action, ECHCG; conditions: 80 g/ha, Table C
# In short: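 Weed and crop plants grown in sandy loam in the greenhouse, treated at the one-leaf stage 2–3 weeks after sowing. Damage scored visually after about 3 weeks vs untreated controls (0% = control, 100% = dead).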
# Abutilon theophrasti [10] = assay: Pre-emergence herbicidal action, ABUTH; conditions: dosage 320 g/ha, scored visually after 3 weeks vs untreated controls
# In short: as §4
# Pharbitis purpureum = assay: Post-emergence herbicidal action, PHBPU; conditions: 80 g/ha, Table D
# In short: as §3
# Cyperus serotinus = assay: Pre-emergence herbicidal action, CYPES; conditions: dosage 320 g/ha, scored visually after 3 weeks vs untreated controls
# In short: as §4
# Setaria viridis [11] = assay: Post-emergence herbicidal action, SETVI; conditions: 80 g/ha, Table C
# In short: as §3
# Stellaria media [12] = assay: Pre-emergence herbicidal action, STEME; conditions: dosage 320 g/ha, scored visually after 3 weeks vs untreated controls
# In short: as §4
# Viola tricolor [13] = assay: Post-emergence herbicidal action, VIOTR; conditions: 80 g/ha, Table D
# In short: as §3
# Amaranthus retroflexus [14] = assay: Pre-emergence herbicidal action, AMARE; conditions: dosage 320 g/ha, scored visually after 3 weeks vs untreated controls
# In short: as §4
SMILES,herbicidal activity ALOMY (Alopecurus myosuroides [1]),herbicidal activity AMARE (Amaranthus retroflexus [2]),herbicidal activity VIOTR (Viola tricolor [3]),herbicidal activity SETVI (Setaria viridis [4]),Herbicidal activity STEME (Stellaria media [5]),herbicidal activity AVEFA (Avena fatua [6]),herbicidal activity AVEFA (Avena fatua [7]),herbicidal activity ABUTH (Abutilon theophrasti [8]),herbicidal activity ALOMY (Alopecurus myosuroides [9]),herbicidal activity MATIN (Matricaria inodora),Herbicidal activity ECHCG (ECHCG),herbicidal activity ABUTH (Abutilon theophrasti [10]),Herbicidal activity PHBPU (Pharbitis purpureum),herbicidal activity CYPES (Cyperus serotinus),herbicidal activity SETVI (Setaria viridis [11]),Herbicidal activity STEME (Stellaria media [12]),herbicidal activity VIOTR (Viola tricolor [13]),herbicidal activity AMARE (Amaranthus retroflexus [14])
CCc1c(C(=O)Nc2nnnn2C)ccc(C(F)F)c1[S+](C)[O-] (stereo not shown) [Example 1-14],90%,90%,100%,100%,100%,100%,90%,100%,100%,100%,100%,100%,90%,100%,100%,100%,90%,100%
CCSc1c(C(F)F)ccc(C(=O)Nc2nnnn2C)c1Br [Example 1-64],90%,100%,100%,100%,100%,100%,100%,100%,100%,100%,90%,100%,100%,100%,90%,100%,100%,100%
CCn1nnnc1NC(=O)c1ccc(C(F)F)c([S+](C)[O-])c1Br (stereo not shown) [Example 2-62],90%,100%,100%,100%,100%,100%,100%,100%,100%,100%,100%,100%,100%,100%,100%,100%,100%,100%
CC[S+]([O-])c1c(C(F)F)ccc(C(=O)Nc2ncnn2C)c1Cl (stereo not shown) [Example 4-53],90%,100%,100%,100%,90%,100%,100%,100%,100%,100%,90%,100%,90%,100%,100%,100%,100%,100%
CCn1nnnc1NC(=O)c1ccc(C(F)F)c(S(=O)(=O)CC)c1C [Example 2-6],80%,90%,100%,100%,100%,100%,100%,100%,100%,100%,90%,100%,100%,100%,90%,100%,100%,100%
CCCn1nnnc1NC(=O)c1ccc(C(F)F)c(SC)c1C [Example 3-1],90%,100%,100%,100%,100%,100%,100%,100%,100%,100%,100%,100%,90%,–,100%,100%,100%,100%
CCS(=O)(=O)c1c(C(F)F)ccc(C(=O)Nc2nnc(C)o2)c1Br [Example 7-64],90%,100%,100%,100%,90%,100%,100%,100%,100%,100%,100%,100%,100%,100%,100%,100%,90%,–
CCSc1c(C(F)F)ccc(C(=O)Nc2ncnn2C)c1Br [Example 4-64],100%,100%,100%,100%,100%,100%,100%,100%,90%,100%,100%,100%,100%,–,100%,100%,100%,100%
CCS(=O)(=O)c1c(C(F)F)ccc(C(=O)Nc2nnnn2C)c1I [Example 1-78],90%,100%,100%,100%,100%,100%,80%,80%,100%,100%,100%,100%,100%,100%,100%,–,90%,100%
CCCn1nnnc1NC(=O)c1ccc(C(F)F)c(S(C)(=O)=O)c1C [Example 3-3],90%,80%,100%,100%,90%,100%,90%,90%,90%,100%,90%,100%,90%,90%,90%,–,100%,100%
